# According to patent US8487111B2, “Substituted oxazolidinones and their use” (Bayer Intellectual Property GmbH, priority 2007, dated 2013):
# Assays:
# thrombin = thrombin (Homo sapiens (Human), UniProt P00734); test: Determination of the thrombin-inhibitory activity in plasma samples (ecarin, fluorogenic thrombin substrate); type: biochemical; conditions: thrombin inhibition in citrate plasma (Octapharma), ecarin-stimulated
# Description: a.5) Determination of the Thrombin-Inhibitory Activity of the Potential Inhibitors in Plasma Samples
# Various concentrations of the substances to be tested are dissolved in dimethyl sulphoxide and diluted with water. In white 96-well plates having a flat bottom, 20 μl of substance dilution are mixed with 20 μl of ecarin solution (ecarin reagent, from Sigma E-0504, final concentration 20 mU per batch) in Ca buffer (200 mM Hepes+560 mM sodium chloride+10 mM calcium chloride+0.4% PEG) or with 20 μl of Ca buffer (as unstimulated control). Furthermore, 20 μl of fluorogenic thrombin substrate (from Bachem I-1120, final concentration 50 μmol/l) and 20 μl of citrate plasma (from Octapharma) are added and homogenized thoroughly. The plate is measured in a SpectraFluorplus Reader using an excitation filter of 360 nm and an emission filter of 465 nm each minute over a period of 20 minutes. The IC50 value is determined when about 70% of the maximum signal is reached (about 12 min).
# factor Xa = factor Xa (Homo sapiens (Human), UniProt P00742); test: Determination of the factor Xa-inhibitory activity in plasma samples (RVV-activated factor X, chromogenic substrate); type: biochemical; conditions: factor Xa inhibition in citrate plasma (Octapharma), RVV-stimulated, ChromozymX substrate
# factor Xa, sequence (P00742 whole entry, looked up): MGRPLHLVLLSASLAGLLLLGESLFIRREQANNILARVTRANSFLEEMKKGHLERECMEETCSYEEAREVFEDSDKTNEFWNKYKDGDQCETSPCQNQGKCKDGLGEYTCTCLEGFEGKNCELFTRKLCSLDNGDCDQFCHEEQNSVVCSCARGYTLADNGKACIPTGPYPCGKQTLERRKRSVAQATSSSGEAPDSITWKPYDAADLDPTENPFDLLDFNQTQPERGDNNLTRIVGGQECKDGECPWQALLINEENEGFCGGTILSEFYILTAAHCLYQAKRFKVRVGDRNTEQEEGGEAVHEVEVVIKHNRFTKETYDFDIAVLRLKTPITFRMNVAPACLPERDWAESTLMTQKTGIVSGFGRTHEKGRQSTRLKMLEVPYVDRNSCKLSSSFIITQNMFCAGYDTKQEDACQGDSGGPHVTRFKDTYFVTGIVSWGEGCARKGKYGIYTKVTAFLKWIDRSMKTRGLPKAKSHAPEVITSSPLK
# factor Xa, sequence (P00742 whole entry, looked up): as above
# Description: a.4) Determination of the Factor Xa-Inhibitory Activity of the Potential Inhibitors in Plasma Samples
# To determine the inhibition of factor Xa in plasma samples, the factor X present in plasma is activated by a protease from rattlesnake toxin. The factor Xa activity or its inhibition by potential inhibitors is then measured by addition of a chromogenic substrate.
# Various concentrations of the substances to be tested are dissolved in dimethyl sulphoxide and mixed with an aqueous refludan solution (10 μg/ml). In clear 96-well plates having a flat bottom, 30 μl of citrate plasma (Octapharma) are mixed with 10 μl of the substance dilution. Then, either 20 μl of a solution of a rattlesnake toxin (Russel viper venom (RVV); RVV reagent: Pentapharm 121-06, final concentration 0.6 mU) in an aqueous calcium chloride solution buffer (final concentration of calcium chloride 0.05 M) or 20 μl of the aqueous calcium chloride solution (final concentration of calcium chloride 0.05 M) without RVV reagent (as reference for an unstimulated sample) are added. After addition of 20 μl of ChromozymX substrate (final concentration 1.6 mmol/l, Bachem L-1565, diluted in water) the samples are measured in a SpectraFluor Reader using a measurement filter of 405 nm each minute over a period of 20 minutes. The IC50 value is determined when about 70% of the maximum signal is reached (about 12 min).
SMILES,IC50 (thrombin) [nM],IC50 (factor Xa) [nM]
"Cc1cc(N2C[C@H](CNC(=O)c3ccc(Cl)s3)OC2=O)ccc1-n1cccc(CCCO)c1=O [Example 10, 5-Chloro-N-{[(5S)-3-{4-[3-(3-hydroxypropyl)-2-oxopyridin-1(2H)-yl]-3-methylphenyl}-2-oxo-1,3-oxazolidin-5-yl]methyl}thiophene-2-carboxamide]",74,40
"Cc1cc(N2C[C@H](CNC(=O)c3ccc(Cl)s3)OC2=O)ccc1-n1cccc(CO)c1=O [Example 2, 5-Chloro-N-[((5S)-3-{4-[3-(hydroxymethyl)-2-oxopyridin-1(2H)-yl]-3-methylphenyl}-2-oxo-1,3-oxazolidin-5-yl)methyl]thiophene-2-carboxamide]",198,21
COCc1cc(N2C[C@H](CNC(=O)c3ccc(Cl)s3)OC2=O)ccc1-n1cccc(CCO)c1=O [Example 8],16,167
"Cc1cc(N2C[C@H](CNC(=O)c3ccc(Cl)s3)OC2=O)ccc1-n1cccc(CCO)c1=O [Example 6, 5-Chloro-N-[((5S)-3-{4-[3-(2-hydroxyethyl)-2-oxopyridin-1(2H)-yl]-3-methylphenyl}-2-oxo-1,3-oxazolidin-5-yl)methyl]thiophene-2-carboxamide]",186,70
